Test results from patent publication US20080286147A1, “Apparatus and Method for Decontamination” (GOVERNMENT OF THE U.S.A. OF AMERICA AS REPRESENTED, priority 2004, published 2008).
Values joined by “and” are separate entries in the source; they are usually repeats but may differ in a detail not shown here. Equal values may be shown once.

Legend:
Format in all cases: cell-based
[1] = tested on: B. subtilis var. niger spores; test: Decontamination of a mock BSC containing spore test strips with chlorine dioxide gas; strips cultured in tryptic soy broth
Excerpt: Test strips contaminated with 2.4×10^4 B. subtilis var. niger spores (Castle Biospore Biological Indicators, Castle, Inc., Rochester, N.Y.) were placed inside a mock BSC (FIG. 7) in various positions. The mock BSC was generated such that it was sealed from the outside environment, and included two openings to permit influx and efflux of air and other agents through the mock BSC.
After sealing the mock BSC, the sealed mock BSC was humidified to 74-95% relative humidity using the following methods. Referring to FIGS. 2, 3 and 7, water was added to a humidifier/scrubber 22, and a blower 24 attached to the humidifier/scrubber 22 to allow air to pass by the water to generate humidified air. A hose 30 coming from the humidifier/scrubber which emitted humidified air was introduced into one of the openings 402 in the mock BSC 400. A hose 36 coming out of the mock BSC was attached to the blower 22, thereby providing a closed-loop which circulated humidified air from the humidifier/scrubber 22 into the mock BSC 400, out of the mock BSC 400 and back to the humidifier/scrubber 22, and so on. A hygrometer 404 in the mock BSC was used to monitor the relative humidity in the mock BSC.
During the humidification, chlorine dioxide gas was introduced into the mock BSC as follows. A tank 12 containing a 4% chlorine/96% nitrogen gas mixture was turned on to permit the flow of gas to a CDG Saf-T-Chlor™ chlorine dioxide gas generator 14. This generator includes a sodium chlorite cartridge in fluid communication with the 4% Cl/96% N2 gas mixture. The resulting chlorine dioxide gas was allowed to flow into the hose 30 exiting the humidifier/scrubber (containing the humidified air), and was allowed to enter the mock BSC along with the humidified air. A chlorine dioxide monitor in the mock BSC allowed for a determination of the amount of chloride dioxide in the mock BSC. In some instances, the air circulation was increased by including a fan 406 in the mock BSC.
Following exposure to chlorine dioxide, the tank 12 containing a 4% Cl/96% N2 gas mixture was turned off, to stop the flow and production of chlorine dioxide gas. To neutralize the chlorine dioxide gas, the following methods were used. A neutralizing solution that included 10% NaOH and 10% sodium thiosulfate hydrate (in water) was introduced into the humidifier/scrubber 22. Air from the mock BSC containing chlorine dioxide gas was circulated through the closed system described above, such that when the air containing chloride dioxide gas passed through the humidifier/scrubber 22, it was at least partially neutralized. […]

[2] = tested on: B. subtilis var. niger spores; test: Decontamination of a BSC containing spore test strips using 4000 ppm ClO2 for 60 min; conditions: 75% relative humidity
Excerpt: (§1) Test strips described in Example 1 were placed inside a BSC (FIG. 8) in various positions. Referring to FIGS. 2, 3 and 8, the opening in the front of the BSC 500 was sealed using a polyethylene sheet 502 or plastic sheeting and duct tape. An opening 504 was made in the plastic or polyethylene 502 to permit influx of air and other agents through the sealed BSC 500. Gas was evacuated from the sealed BSC using the port 506 on the top of the sealed BSC through fluid flow path 36.
After sealing the BSC, the sealed area was humidified to 75% relative humidity as described in Example 1. Briefly, water was added to a humidifier/scrubber 22, and a blower 24 attached to the humidifier/scrubber 22 to allow air to pass by the water to generate humidified air. A hose 30 coming from the humidifier/scrubber which emitted humidified air was introduced into an opening 504 in the sealed BSC 500. A hose 36 coming out of the BSC was attached to the blower 22, thereby providing a closed-loop which circulated humidified air from the humidifier/scrubber 22 into the sealed BSC 500, out of the sealed BSC 500 and back to the humidifier/scrubber 22, and so on.
During the humidification, chlorine dioxide gas was introduced into the BSC as described in Example 1. The BSC was exposed to 4000 ppm chlorine dioxide gas for one hour. […]

[3] = tested on: B. subtilis var. niger spores; test: Decontamination of a BSC containing spore test strips using 2500 ppm ClO2 for 60 min; conditions: 70-80% relative humidity
Excerpt: as §1
After sealing the BSC, the sealed area was humidified to 70-80% relative humidity as described in Examples 1 and 2. During the humidification, chlorine dioxide gas was introduced into the BSC as described in Example 1. The BSC was exposed to 2500 ppm chlorine dioxide gas for one hour. The BSC circulates 15 s/5 min.
Once the hour was up, the chlorine dioxide gas was neutralized as described above. The test strips were cultured as described in Example 1.

[O][Cl+][O-] [ClO2, Chlorine dioxide]
Kill (number of test strips negative for spore growth) ([1]; Run A: 1500 ppm ClO2, exposure 90 min, relative humidity 95%, 69 °F, strips with 2.4×10^4 spores): 16/16 | Kill (number of test strips negative for spore growth) ([1]; Run B: 1500 ppm ClO2, exposure 90 min, relative humidity 85%, 69 °F): 16/16 | Kill (number of test strips negative for spore growth) ([1]; Run C: 2200 ppm ClO2, exposure 60 min, relative humidity 74%, 69 °F): 17/17 | Kill (number of test strips negative for spore growth) ([1]; Run D: 2000 ppm ClO2, exposure 60 min, relative humidity 75%, 68 °F): 17/17 | Kill (number of test strips negative for spore growth) ([2]; 4000 ppm ClO2 for 60 min, Runs A-E (76.0-86.0 °F)): 24/24 and 23/24 | spore kill on test strips (in words) ([2]; 4000 ppm chlorine dioxide gas for one hour): all spores were killed except on one test strip | Kill (number of test strips negative for spore growth) ([3]; 2500 ppm ClO2 for 60 min, Runs A-D (70-74 °F)): 24/24 and 23/23 | spore kill on test strips (in words) ([3]; 2500 ppm chlorine dioxide gas for one hour): all spores were killed
